In patent US11535597B2, “Photoreactive ligands and uses thereof” (The Scripps Research Institute, priority 2017, dated 2022):

Tested on: proteins in HEK293T cells
Experiment: MS-based mapping of FFF probe-modified peptides (isoTOP, sites of labeling)
Type: binding, human
Description: Preparation and analysis was adapted from methods previously reported. In brief, for global mapping of fragment probe-modified peptides, separate 10 cm dishes of cells were treated with probes (200-250 μM) in 3.0 mL of DMEM (serum-free) and (if applicable) competitor ligands, proteomes harvested and subjected to click chemistry conditions with either light or heavy isotopically labeled biotin-TEV-azide (10 μL of 5 mM stocks in DMSO, final concentration=100 μM), TCEP, ligand and CuSO4 as detailed above. The samples were allowed to react for 1 h at which point the samples were centrifuged (16,000 g, 5 min, 4° C.). The resulting pellets were sonicated in ice-cold methanol (500 μL) and the resuspended light- and heavy-labeled samples were then combined and centrifuged (16,000 g, 5 min, 4° C.). The pellets were then solubilized in PBS containing 1.2% SDS (1 mL) with sonication and heating (5 min, 95° C.). Samples were transferred to falcon tubes containing DPBS (5 mL), to which a 100 μL of streptavidin-agarose beads slurry was added. After incubation, the beads (3 hr) were pelleted by centrifugation (1,400 g, 3 min) and were washed (2×10 mL PBS and 2×10 mL water). The beads were transferred to eppendorf tubes with 1 mL DPBS, centrifuged (1,400 g, 3 min), and resuspended in PBS containing 6 M urea. To this was added 10 mM DTT (25 μL of a 200 mM stock in water) and the beads were incubated at 65° C. for 15 mins. 20 mM iodoacetamide (25 μL of a 400 mM stock in water) was then added and allowed to react at 37° C. for 30 mins with shaking. The bead mixture was diluted with 900 μL PBS, pelleted by centrifugation (1,400 g, 3 min), and resuspended in 200 μL 2M urea (DPBS) containing trypsin and CaCl2 as described above. The beads were separated from the digest by centrifugation (1,000 g, 1 min), washed (2×1 mL PBS and 2×1 mL water) and then transferred to fresh eppendorfs with 1 mL water. The washed beads were washed once further in 150 μL TEV buffer (50 mM Tris, pH 8, 0.5 mM EDTA, 1 mM DTT) by centrifugation (1,400 g, 3 min) and the resuspended in 150 μL TEV buffer. 5 μL TEV protease (80 μM) was added and the reactions were rotated overnight at 29° C. The TEV digest was separated from the beads by centrifugation (1,400 g, 3 min) and the beads were washed once with water (100 μL). The samples were then acidified to a final concentration of 5% (v/v) formic acid and stored at −80° C. prior to analysis.
The resulting probe-modified peptides were collected for MS analysis, which was performed as described above with differences in the salt bumps applied in the chromatographic gradients which in this case were 0%, 30%, 60%, 90% and 100% NH4OAc (500 μM). The protein identification searches of the MS data were performed with the following changes applied to identify the peptides modified with the corresponding fragment probe and the cleaved TEV tag. All amino acids were considered as possible residues for modification. To facilitate the computational searches, sets of up to 3 amino acids were searched using ProLuCID and filtered with DTASelect as described above. […] The isoTOP ratios for probe labeled peptides were quantified using the in-house software CIMAGE.
For each protein in the site-of-labeling dataset, the UniProtKB accession number was used to map and collect relevant structures from the RCSB Protein Data Bank (PDB) fulfilling the following criteria: structures determined by X-ray crystallography, wild-type protein, Homo sapiens as the sole source organism. […] Fpocket 2.0 was used to detect potential binding pockets for the resultant structures with all parameters set at recommended default. Pockets with volume less than 500 Å^3 were removed from output prior to further analysis. Residues surrounding fpocket predicted binding pockets for each protein were collected to determine the number of residues overlapping with isoTOP peptides.

## C#CCCC1(CCC(=O)Nc2ccc(C3CCNCC3)cc2)N=N1 [probe 9, 3-(3-(But-3-yn-1-yl)-3H-diazirin-3-yl)-N-(4-(piperidin-4-yl)phenyl)propanamide]
Accession P06865, residues of probe-labeled peptide, family Enzymes
  Labeled Peptide of HEXA Beta-hexosaminidase subuit alpha: 489-499
Accession P10253, residues of probe-labeled peptide, family Enzymes
  Labeled Peptide of GAA Lysosomal alpha-glucosidase: 855-870
Accession P16278, residues of probe-labeled peptide, family Enzymes
  Labeled Peptide of GLB1 Beta-galactosidase: 286-299
HEXA Beta-hexosaminidase subunit alpha, residues of probe-modified peptide
  Labeled Peptide: 489-499
HSP90B1 Endoplasmin, residues of probe-modified peptide
  Labeled Peptide: 117-135
LGALS3BP Galectin-3-binding protein (Q08380), residues of the probe-labeled peptide
  Labeled Peptide: 522-541
MAN2B1 Lysosomal alpha-mannosidase (O00754), residues of the probe-labeled peptide
  Labeled Peptide: 614-638
MAN2B2 Epididymis specific alpha-mannosidase (Q9Y2E5), residues of the probe-labeled peptide
  Labeled Peptide: 642-664
NAGLU Alpha-N-acetylglucosaminidase (P54802), residues of the probe-labeled peptide
  Labeled Peptide: 566-580
P4HB Protein disulfide-isomerase (P07237), residues of the probe-labeled peptide
  Labeled Peptide: 171-195
P00338 LDHA L-lactate dehydrogenase A chain
  Labeled Peptide: 43-57
P06865 HEXA Beta-hexosaminidase subunit alpha
  Labeled Peptide: 489-499
P07339 CTSD Cathepsin D
  Labeled Peptide: 236-253
P14625 HSP90B1 Endoplasmin
  Labeled Peptide: 117-135
P16278 GLB1 Beta-galactosidase
  Labeled Peptide: 286-299
Q9H7B4, peptide DQYCLECDCFR, PDB 5HQ8
  Labeled Peptide (residues) of SMYD3 SET and MYND domain-containing protein 3: 255-265
Protein ATP1A1 (P05023), residues of probe-labeled peptide
  Labeled Peptide: 894-911
Protein C19orf6 Membralin (Q4ZIN3), residues of probe-labeled peptide
  Labeled Peptide: 254-271
Protein CCT6A T-complex protein 1 subunit zeta (P40227), residues of probe-labeled peptide
  Labeled Peptide: 400-424
Protein CLN5 Ceroid-lipofuscinosis neuronal protein 5 (O75503), residues of probe-labeled peptide
  Labeled Peptide: 74-96
Protein CPVL Probable serine carboxypeptidase CPVL (Q9H3G5), residues of probe-labeled peptide
  Labeled Peptide: 195-208
Protein CTSD Cathepsin D, residues of probe-labeled peptide
  Labeled Peptide: 236-253
Protein CTSD Cathespin D (P07339), residues of probe-labeled peptide
  Labeled Peptide: 236-253
Protein DNASE2 Deoxyribonuclease-2-alpha (O00115), residues of probe-labeled peptide
  Labeled Peptide: 173-202
Protein ECHDC1 Ethylmalonyl-CoA decarboxylase (Q9NTX5), residues of probe-labeled peptide
  Labeled Peptide: 272-283
Protein EIF4H Eukaryotic translation initiation factor 4H (Q15056), residues of probe-labeled peptide
  Labeled Peptide: 97-109
Protein FARSB Phenylalanine--tRNA ligase beta subunit, residues of probe-labeled peptide
  Labeled Peptide: 72-82
Protein FARSB Phenylalanini--tRNA ligase beta subunit (Q9NSD9), residues of probe-labeled peptide
  Labeled Peptide: 72-82
Protein GLB1 Beta-galactosidase, residues of probe-labeled peptide
  Labeled Peptide: 286-299
Protein LDHA L-lactate dehydrogenase A chain, residues of the probe-labeled peptide
  Labeled Peptide: 43-57
Protein NAGLU Alpha-N-acetylglucosaminidase, residues of the probe-labeled peptide
  Labeled Peptide: 566-580
Protein P4HB Protein disulfide-isomerase, residues of the probe-labeled peptide
  Labeled Peptide: 171-195
Protein P46977 STT3A Dolichyl-diphosphooligosaccharide--protein glycosy
  Labeled Peptide: 572-595
Protein PCYOX1 Prenylcysteine oxidase 1 (Q9UHG3)
  Labeled Peptide: 292-304
Protein PDIA4 Protein disulfide-isomerase A4 (P13667)
  Labeled Peptide: 486-499
Protein PHB Prohibitin (P35232)
  Labeled Peptide: 220-239
Protein Q8IXU6 SLC35F2 Solute carrier family 35 member F2
  Labeled Peptide: 188-221
Protein Q8TCJ2 STT3B Dolichyl-diphosphooligosaccharide--protein glycosy
  Labeled Peptide: 651-674
Protein Q9BVK6 TMED9 Transmembrane emp24 domain-containg protein 9
  Labeled Peptide: 49-65
Protein Q9H7B4 SMYD3 SET and MYND domain-containing protein 3
  Labeled Peptide: 255-265
Protein Q92973 TNPO1 Transportin-1
  Labeled Peptide: 273-298
Protein RALA Ras-related protein Ral-A (P11233)
  Labeled Peptide: 28-47
Protein SMYD3 SET and MYND domain-containing protein 3, residues of the probe-modified peptide
  Labeled Peptide: 255-265
Protein TNPO1 Transportin-1, residues of the probe-modified peptide
  Labeled Peptide: 273-298
